How the values were obtained:
Axl = biological target: T1, Axl (Homo sapiens, UniProt P30530); assay: Phospho-AKT HTRF, HUVEC, Axl ABX-L, 8 pt; format: cell-based; details: HUVEC cells, pAkt(Ser473) HTRF, Axl ABX-L stimulation
T1 construct: Seed HUVECs (10K cells/well) in EBM-2 complete media; host or cells: HUVEC
T1 sequence (P30530 26-894): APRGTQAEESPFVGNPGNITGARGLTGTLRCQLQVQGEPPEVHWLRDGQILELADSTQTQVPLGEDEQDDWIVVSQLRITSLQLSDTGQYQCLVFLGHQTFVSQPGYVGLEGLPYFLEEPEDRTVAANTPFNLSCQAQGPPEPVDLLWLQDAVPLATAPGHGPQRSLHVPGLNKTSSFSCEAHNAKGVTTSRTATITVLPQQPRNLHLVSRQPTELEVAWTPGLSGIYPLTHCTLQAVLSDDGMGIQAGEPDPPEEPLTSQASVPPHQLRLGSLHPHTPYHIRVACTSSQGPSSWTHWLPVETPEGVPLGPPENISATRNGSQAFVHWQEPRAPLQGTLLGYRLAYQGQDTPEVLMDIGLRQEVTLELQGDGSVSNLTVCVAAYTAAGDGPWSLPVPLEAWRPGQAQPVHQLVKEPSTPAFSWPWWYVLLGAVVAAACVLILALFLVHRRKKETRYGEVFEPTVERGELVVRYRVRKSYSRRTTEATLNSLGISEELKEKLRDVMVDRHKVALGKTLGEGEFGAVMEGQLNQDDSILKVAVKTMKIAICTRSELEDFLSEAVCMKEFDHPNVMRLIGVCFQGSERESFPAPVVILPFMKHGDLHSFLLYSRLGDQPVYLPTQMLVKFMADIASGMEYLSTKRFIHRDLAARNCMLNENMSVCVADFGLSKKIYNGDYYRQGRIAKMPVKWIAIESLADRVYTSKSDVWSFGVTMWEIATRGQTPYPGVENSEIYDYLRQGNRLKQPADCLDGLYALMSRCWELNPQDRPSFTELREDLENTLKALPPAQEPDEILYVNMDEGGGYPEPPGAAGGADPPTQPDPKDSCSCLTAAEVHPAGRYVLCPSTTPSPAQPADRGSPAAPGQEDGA
Protocol: [The source words this procedure for another target and reports this target under the same test.] (§1) Example 13: PAKT HTRF-HUVEC Assay
(§2) Seed HUVECs (10K cells/well) in EBM-2 complete media (EBM-2 basal medium plus EGM-2 BulletKit supplements) overnight at 37° C., 5% CO2 in Costar 96-well white clear-bottom plates. Remove culture media and starve cells for 3-4 hours in 50 μL/well EBM-2 basal medium. Perform serial dilution of compounds in DMSO from 2.5 mM in 4-fold dilutions, and then dilute 1:125 in EBM-2 basal media. Mix 50 μL/well 2× compounds with 50 μL/well HUVECs in duplicate in Costar 96-well white clear-bottom plates. Incubate plates for 1 hour at 37° C., 5% CO2. Cross-link anti-human MerTK antibody to Biotin-SP-conjugated anti-mouse IgG antibody (1:1) to give final concentrations of 5 μg/mL of anti-human MerTK-XL. Stimulate HUVECs with 25 μL/well 5× anti-human MerTK-XL to give final concentrations of 1 ug/mL for 10 minutes at 37° C., 5% CO2. Completely remove media and lyse HUVECs with 40 uL:WELL per well of Cisbio HTRF 1× lysis buffer. Performed pAkt(Ser473) HTRF assay in ProxiPlate-384 Plus, white 384-shallow well microplate according to the vendor protocol and read plates with a SpectralMax Paradigm plate reader. Enter the HTRF values into Athena (Rigel) for curve fitting, EC50 calculation, and database storage.

MerTK = biological target: T2, MerTK (Homo sapiens, UniProt Q12866); assay: Phospho-AKT HTRF, HUVEC, Mer-XL, 8 pt (pAKT HTRF-HUVEC assay, anti-human MerTK-XL stimulation); format: cell-based; details: HUVEC cells, pAkt(Ser473) HTRF, anti-human MerTK-XL stimulation 1 ug/mL 10 minutes
T2 construct: Seed HUVECs (10K cells/well) in EBM-2 complete media; host or cells: HUVEC
T2 sequence (Q12866 21-999): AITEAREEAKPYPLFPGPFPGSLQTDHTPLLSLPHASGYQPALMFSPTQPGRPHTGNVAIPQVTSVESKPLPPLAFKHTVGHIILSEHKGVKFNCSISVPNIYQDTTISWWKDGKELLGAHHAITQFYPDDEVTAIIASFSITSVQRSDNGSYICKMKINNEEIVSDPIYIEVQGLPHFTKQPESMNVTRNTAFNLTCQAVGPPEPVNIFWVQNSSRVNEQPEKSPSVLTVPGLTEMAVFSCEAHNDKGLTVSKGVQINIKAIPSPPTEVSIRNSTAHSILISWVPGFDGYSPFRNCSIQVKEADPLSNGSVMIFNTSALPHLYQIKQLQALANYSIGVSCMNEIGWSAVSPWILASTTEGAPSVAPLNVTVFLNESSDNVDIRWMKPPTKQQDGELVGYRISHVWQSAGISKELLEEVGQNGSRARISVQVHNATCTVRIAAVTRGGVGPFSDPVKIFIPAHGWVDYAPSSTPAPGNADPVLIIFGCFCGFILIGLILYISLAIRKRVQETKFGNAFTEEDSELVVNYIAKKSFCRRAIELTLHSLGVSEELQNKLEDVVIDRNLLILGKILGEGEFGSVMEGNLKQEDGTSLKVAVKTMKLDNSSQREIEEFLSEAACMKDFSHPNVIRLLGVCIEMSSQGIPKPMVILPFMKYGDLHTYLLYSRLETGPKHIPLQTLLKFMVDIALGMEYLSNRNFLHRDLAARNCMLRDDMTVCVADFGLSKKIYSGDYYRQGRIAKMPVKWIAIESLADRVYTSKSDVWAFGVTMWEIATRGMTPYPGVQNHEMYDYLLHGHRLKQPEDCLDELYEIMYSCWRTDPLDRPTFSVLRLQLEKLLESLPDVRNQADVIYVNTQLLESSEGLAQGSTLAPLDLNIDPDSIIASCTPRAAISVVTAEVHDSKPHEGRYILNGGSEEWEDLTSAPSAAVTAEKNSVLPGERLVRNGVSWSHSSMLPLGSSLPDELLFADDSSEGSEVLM
Protocol: as §1, §2

| Structure (SMILES) | EC50 (Axl) | EC50 (MerTK) |
| --- | --- | --- |
| COc1cc2c(Oc3ccc(NC(=O)c4cccc(-c5ccccc5)n4)nc3)ccnc2cc1OCCCN1CCOCC1 [Compound 10, N-(5-((6-Methoxy-7-(3-morpholinopropoxy)quinolin-4-yl)oxy)pyridin-2-yl)-6-phenylpicolinamide] | 12.9 nM | 4.9 nM |
| COc1cc2c(Oc3ccc(NC(=O)c4cc(N5CC(F)(F)C5)ccn4)nc3)ccnc2cc1OCCCN1CCOCC1 [Compound 20, 4-(3,3-difluoroazetidin-1-yl)-N-(5-((6-methoxy-7-(3-morpholinopropoxy)quinolin-4-yl)oxy)pyridin-2-yl)picolinamide] | 163 nM | 209 nM |
| COc1cc2c(Oc3ccc(NC(=O)c4cc(N5CCN(C)CC5)ccn4)nc3)ccnc2cc1OCCCN1CCOCC1 [Compound 1, N-(5-((6-Methoxy-7-(3-morpholinopropoxy)quinolin-4-yl)oxy)pyridin-2-yl)-4-(4-methylpiperazin-1-yl)picolinamide] | 403 nM | 421 nM |
| COc1cc2c(Oc3ccc(NC(=O)c4cc(N5CCC(O)CC5)ccn4)nc3)ccnc2cc1OCCCN1CCOCC1 [Compound 8, 4-(4-Hydroxypiperidin-1-yl)-N-(5-((6-methoxy-7-(3-morpholino-propoxy)quinolin-4-yl)oxy)pyridin-2-yl)picolinamide, trifluoroacetic acid] | 228 nM | 90.9 nM |
| COc1cc2c(Oc3ccc(NC(=O)c4cccc(N5CCC(O)CC5)n4)nc3)ccnc2cc1OCCCN1CCOCC1 [Compound 24, 6-(4-hydroxypiperidin-1-yl)-N-(5-((6-methoxy-7-(3-morpholinopropoxy)quinolin-4-yl)oxy)pyridin-2-yl)picolinamide] | 742 nM | 654 nM |
| COc1cc2c(Oc3ccc(NC(=O)c4cc(-c5ccccc5)ccn4)nc3)ccnc2cc1OCCCN1CCOCC1 [Compound 3, N-(5-((6-Methoxy-7-(3-morpholinopropoxy)quinolin-4-yl)oxy)pyridin-2-yl)-4-phenylpicolinamide] | 162 nM | 98.7 nM |
| COc1cc2c(Oc3ccc(NC(=O)c4nc5ccccc5c(=O)[nH]4)nc3)ccnc2cc1OCCCN1CCOCC1 [Compound 9, N-(5-((6-Methoxy-7-(3-morpholinopropoxy)quinolin-4-yl)oxy)pyridin-2-yl)-4-oxo-3,4-dihydroquinazoline-2-carboxamide, trifluoroacetic acid] | 71.7 nM | 42.7 nM |
| COc1cc2c(Oc3ccc(NC(=O)c4nc(-c5ccccc5)c5ccccc5n4)nc3)ccnc2cc1OCCCN1CCOCC1 [Compound 5, N-(5-((6-Methoxy-7-(3-morpholinopropoxy)quinolin-4-yl)oxy)pyridin-2-yl)-4-phenylquinazoline-2-carboxamide] | 1.4 nM | 2.2 nM |
| COc1cc2c(Oc3ccc(NC(=O)c4cc(N5CC6(COC6)C5)ccn4)nc3)ccnc2cc1OCCCN1CCOCC1 [Compound 19, N-(5-((6-methoxy-7-(3-morpholinopropoxy)quinolin-4-yl)oxy)pyridin-2-yl)-4-(2-oxa-6-azaspiro[3.3]heptan-6-yl)picolinamide] | 568 nM | 505 nM |
| COc1cc2c(Oc3ccc(NC(=O)c4cc(-c5ccccc5)c5c(n4)C4CCN5CC4)nc3)ccnc2cc1OCCCN1CCOCC1 [Compound 2, N-(5-((6-Methoxy-7-(3-morpholinopropoxy)quinolin-4-yl)oxy)pyridin-2-yl)-8-phenyl-3,4-dihydro-2H-1,4-ethano-1,5-naphthyridine-6-carboxamide] | 40.8 nM | 47 nM |
| COc1cc2c(Oc3ccc(NC(=O)c4cc(N5CCC(F)(F)CC5)ccn4)nc3)ccnc2cc1OCCCN1CCOCC1 [Compound 21, 4-(4,4-difluoropiperidin-1-yl)-N-(5-((6-methoxy-7-(3-morpholinopropoxy)quinolin-4-yl)oxy)pyridin-2-yl)picolinamide] | 62.8 nM | 80.6 nM |
| COc1cc2c(Oc3ccc(NC(=O)c4cc(N5CCC(O)CC5)ccn4)nc3)ccnc2cc1OCCCN1CCOCC1 [Compound 11, 4-(4-Hydroxypiperidin-1-yl)-N-(5-((6-methoxy-7-(3-morpholino-propoxy)quinolin-4-yl)oxy)pyridin-2-yl)picolinamide] | 197 nM | 86 nM |

Continued, values first:

| EC50 (Axl) | EC50 (MerTK) | Structure (SMILES) |
| --- | --- | --- |
| 55.2 nM | 44.9 nM | COc1cc2c(Oc3ccc(NC(=O)c4csc(-c5ccc(F)cc5)n4)nc3)ccnc2cc1OCCCN1CCOCC1 [Compound 43, 2-(4-fluorophenyl)-N-(5-((6-methoxy-7-(3-morpholinopropoxy)quinolin-4-yl)oxy)pyridin-2-yl)thiazole-4-carboxamide] |
| 462 nM | 162 nM | COc1cc2c(Oc3ccc(NC(=O)c4cc(C)ccn4)nc3)ccnc2cc1OCCCN1CCOCC1 [Compound 32, N-(5-((6-Methoxy-7-(3-morpholinopropoxy)quinolin-4-yl)oxy)pyridin-2-yl)-4-methylpicolinamide] |
| 26.8 nM | 15.4 nM | COc1cc2ncnc(Oc3ccc(NC(=O)c4nc(-c5ccccc5)c5c(n4)C4CCN5CC4)nc3)c2cc1OC [Compound 49, N-(5-((6,7-dimethoxyquinazolin-4-yl)oxy)pyridin-2-yl)-4-phenyl-7,8-dihydro-6H-5,8-ethanopyrido[3,2-d]pyrimidine-2-carboxamide] |
| 649 nM | 459 nM | COc1cc2c(Oc3ccc(NC(=O)c4csc(N5CCC(O)CC5)n4)nc3)ccnc2cc1OCCCN1CCOCC1 [Compound 45, 2-(4-hydroxypiperidin-1-yl)-N-(5-((6-methoxy-7-(3-morpholinopropoxy)quinolin-4-yl)oxy)pyridin-2-yl)thiazole-4-carboxamide, hydrochloric acid] |
| 112 nM | 14.3 nM | COc1cc2c(Oc3ccc(NC(=O)c4cccc(N5CCOCC5)n4)nc3)ccnc2cc1OCCCN1CCOCC1 [Compound 25, N-(5-((6-methoxy-7-(3-morpholinopropoxy)quinolin-4-yl)oxy)pyridin-2-yl)-6-morpholinopicolinamide] |
| 20.9 nM | 12.8 nM | COc1cc2c(Oc3ccc(NC(=O)c4csc(N5CCCCC5)n4)nc3)ccnc2cc1OCCCN1CCOCC1 [Compound 46, N-(5-((6-methoxy-7-(3-morpholinopropoxy)quinolin-4-yl)oxy)pyridin-2-yl)-2-(piperidin-1-yl)thiazole-4-carboxamide] |

From patent publication US10851093B2, “Tyrosine kinase inhibitors” (Rigel Pharmaceuticals, Inc., priority 2018, dated 2020)
